The nature of data set [1]: Microsomal stability, human liver microsomes (predicted hepatic clearance). Particulars: predicted from in vitro microsomal stability data.
The target of data set [2] is GLP-1R (Homo sapiens, UniProt P43220). Kind of data set: GLP-1R activation: cAMP increase in CHO cells stably expressing GLP-1R. The format is cell-based. Particulars: cAMP increase, CHO cells stably expressing GLP-1R, 10 point dose response, 30 minutes incubation; read-out: EC50.

Structures are written as SMILES.

The EC50 is the concentration at which the effect is half-maximal.

Chain of GLP-1R (P43220 24-463): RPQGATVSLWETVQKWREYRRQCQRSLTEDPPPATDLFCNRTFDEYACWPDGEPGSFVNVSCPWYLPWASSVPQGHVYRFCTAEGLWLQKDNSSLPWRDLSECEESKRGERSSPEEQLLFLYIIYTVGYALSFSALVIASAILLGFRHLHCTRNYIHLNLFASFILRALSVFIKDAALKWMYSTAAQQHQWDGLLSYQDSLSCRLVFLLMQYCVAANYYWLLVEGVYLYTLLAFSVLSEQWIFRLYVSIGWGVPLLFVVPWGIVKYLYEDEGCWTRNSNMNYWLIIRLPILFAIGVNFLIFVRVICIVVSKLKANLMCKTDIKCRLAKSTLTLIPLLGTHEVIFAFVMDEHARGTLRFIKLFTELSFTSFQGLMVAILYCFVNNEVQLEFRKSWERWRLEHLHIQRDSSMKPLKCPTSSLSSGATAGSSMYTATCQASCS

As to `COCCn1c(Cc2ccc(-c3cccc(OCc4ccc(C(F)(F)F)nc4N)n3)cc2F)nc2ccc(C(=O)O)cc21` [Example 595, 2-(4-(6-((2-amino-6-(trifluoromethyl)pyridin-3-yl)methoxy)pyridin-2-yl)-2-fluorobenzyl)-1-(2-methoxyethyl)-1H-benzo[d]imidazole-6-carboxylic acid], the “Predicted Hepatic Clearance (Pred. Cl.)” value in data set [1] is 6.17 mL/min/kg.
Regarding `COCCn1c(Cc2ccc(-c3cccc(OCC(=O)c4ccc(OC)cc4)n3)cc2F)nc2ccc(C(=O)O)cc21` [Example 215, 2-(2-fluoro-4-(6-(2-(4-methoxyphenyl)-2-oxoethoxy)pyridin-2-yl)benzyl)-1-(2-methoxyethyl)-1H-benzo[d]imidazole-6-carboxylic acid], the concentration for a half-maximal effect (EC50) in data set [2] was 62.7 nM.
`COCCn1c(Cc2ccc(-c3cccc(OCc4ccc(C#N)cc4F)n3)c(NC(C)=O)c2)nc2ccc(C(=O)O)cc21` [Example 253, 2-(3-acetamido-4-(6-((4-cyano-2-fluorobenzyl)oxy)pyridin-2-yl)benzyl)-1-(2-methoxyethyl)-1H-benzo[d]imidazole-6-carboxylic acid]: the “Predicted Hepatic Clearance (Pred. Cl.)” value in data set [1] is 14 mL/min/kg.
Same read-out and setting: to `COCCn1c(Cc2ccc(-c3cccc(OCc4ccccc4S(C)(=O)=O)n3)cc2F)nc2ccc(C(=O)O)cc21` [Example 510, 2-(2-fluoro-4-(6-((2-(methylsulfonyl)benzyl)oxy)pyridin-2-yl)benzyl)-1-(2-methoxyethyl)-1H-benzo[d]imidazole-6-carboxylic acid] belongs 14.5 mL/min/kg.
For `COc1cc(Cl)ccc1COc1nccc(-c2cc(F)c(Cc3nc4ccc(C(=O)O)cc4n3CC3(CC#N)CC3)cc2F)n1` [Example 446, 2-(4-(2-((4-chloro-2-methoxybenzyl)oxy)pyrimidin-4-yl)-2,5-difluorobenzyl)-1-((1-(cyanomethyl)cyclopropyl)methyl)-1H-benzo[d]imidazole-6-carboxylic acid], the EC50 in data set [2] was 0.15 nM.
Take `COCCn1c(Cc2ccc(-c3cccc(OCc4ccccc4N)n3)cc2F)nc2ccc(C(=O)O)cc21` [Example 498, 2-(4-(6-((2-aminobenzyl)oxy)pyridin-2-yl)-2-fluorobenzyl)-1-(2-methoxyethyl)-1H-benzo[d]imidazole-6-carboxylic acid]: in data set [1], the “Predicted Hepatic Clearance (Pred. Cl.)” value is below 1.83 mL/min/kg.
With `COCCn1c(Cc2ccc(-c3cccc(OCc4ccc(Br)c5nsnc45)n3)cc2F)nc2ccc(C(=O)O)cc21` [Example 151, 2-(4-(6-((7-bromobenzo[c][1,2,5]thiadiazol-4-yl)methoxy)pyridin-2-yl)-2-fluorobenzyl)-1-(2-methoxyethyl)-1H-benzo[d]imidazole-6-carboxylic acid], the EC50 in data set [2] is 7.93 nM.
The same measure, in the same setting: the same measure for `N#Cc1ccc(COc2nccc(-c3ccc(Cc4nc5c(F)cc(C(=O)O)cc5n4Cc4ncco4)cc3F)n2)c(F)c1` [Example 618]: 1.48 nM.
On to `COCCn1c(Cn2cc(-c3csc(OCc4ccc(C#N)cc4F)n3)cn2)nc2ccc(C(=O)O)cc21` [Example 78, 2-((4-(2-((4-cyano-2-fluorobenzyl)oxy)thiazol-4-yl)-1H-pyrazol-1-yl)methyl)-1-(2-methoxyethyl)-1H-benzo[d]imidazole-6-carboxylic acid], for which the “Predicted Hepatic Clearance (Pred. Cl.)” value in data set [1] is 7 mL/min/kg.
For `COCCn1c(Cc2ccc(-c3cccnc3OCc3ccccc3)cc2F)nc2ccc(C(=O)O)cc21` [Example 183, 2-(4-(2-(benzyloxy)pyridin-3-yl)-2-fluorobenzyl)-1-(2-methoxyethyl)-1H-benzo[d]imidazole-carboxylic acid], the EC50 in data set [2] amounted to 3960 nM.
In the case of `COCCn1c(Cc2cc(F)c(-c3ccc(F)c(OCc4cc(F)c(C#N)cc4F)n3)cc2F)nc2c(F)cc(C(=O)O)cc21` [Example 763], in data set [1], the “Predicted Hepatic Clearance (Pred. Cl.)” value is 1.83 mL/min/kg.
As to `COCCn1c(Cc2ncc(-c3cccc(OCc4ccc(C#N)cc4F)n3)cn2)nc2ccc(C(=O)O)cc21` [Example 58, 2-((5-(6-((4-cyano-2-fluorobenzyl)oxy)pyridin-2-yl)pyrimidin-2-yl)methyl)-1-(2-methoxyethyl)-1H-benzo[d]imidazole-6-carboxylic acid], the EC50 in data set [2] was 28.8 nM.
In the case of `CO[C@H]1C[C@@H](n2c(Cc3cc(F)c(-c4cccc(OCc5ccc(C#N)cc5F)n4)cc3F)nc3ccc(C(=O)O)cc32)C1` [Example 566, 2-(4-(6-((4-cyano-2-fluorobenzyl)oxy)pyridin-2-yl)-2,5-difluorobenzyl)-1-((1s,3s)-3-methoxycyclobutyl)-1H-benzo[d]imidazole-6-carboxylic acid], in data set [2], the EC50 came out at 255 nM.
For the compound `COCCn1c(Cc2ccc(-c3cccc(OCc4ccc(C(F)F)cc4F)n3)cc2F)nc2ccc(C(=O)O)cc21` [Example 150, 2-(4-(6-((4-(difluoromethyl)-2-fluorobenzyl)oxy)pyridin-2-yl)-2-fluorobenzyl)-1-(2-methoxyethyl)-1H-benzo[d]imidazole-6-carboxylic acid], the EC50 in data set [2] is 3.35 nM.
Same read-out and setting: to `CC(C)(CF)Cn1c(Cc2ccc(-c3cccc(OCc4ccc(C#N)cc4F)n3)cc2F)nc2ccc(C(=O)O)cc21` [Example 11, 2-(4-(6-((4-cyano-2-fluorobenzyl)oxy)pyridin-2-yl)-2-fluorobenzyl)-1-(3-fluoro-2,2-dimethylpropyl)-1H-benzo[d]imidazole-6-carboxylic acid] belongs 2.7 nM.
For the compound `N#Cc1ccc(COc2cccc(-c3ccc(Cc4nc5ccc(C(=O)O)cc5n4CC4CCO4)c(F)c3)n2)c(F)c1` (stereo not drawn) [Example 15, 2-(4-(6-((4-cyano-2-fluorobenzyl)oxy)pyridin-2-yl)-2-fluorobenzyl)-1-(oxetan-2-ylmethyl)-1H-benzo[d]imidazole-6-carboxylic acid], the “Predicted Hepatic Clearance (Pred. Cl.)” value in data set [1] was 3.3 mL/min/kg.
Turning to `COC1(Cn2c(Cc3cc(F)c(-c4cccc(OCc5ccc(C#N)cc5F)n4)cc3F)nc3ccc(C(=O)O)cc32)CN(C(=O)C2CC2)C1` [Example 889, 2-(4-(6-((4-cyano-2-fluorobenzyl)oxy)pyridin-2-yl)-2,5-difluorobenzyl)-1-((1-(cyclopropanecarbonyl)-3-methoxyazetidin-3-yl)methyl)-1H-benzo[d]imidazole-6-carboxylic acid], in data set [2], the EC50 worked out at 69.5 nM.
Same read-out and setting: to `NC(=O)c1ccc(COc2cc(-c3ccc(Cc4nc5ccc(C(=O)O)cc5[nH]4)c(F)c3)ccc2F)c(F)c1` [Example 469, 2-((3′-((4-carbamoyl-2-fluorobenzyl)oxy)-3,4′-difluoro-[1,1′-biphenyl]-4-yl)methyl)-1H-benzo[d]imidazole-6-carboxylic acid] belongs at least 1000 nM; to `COCCn1c(Cc2ccc(-c3cccc(OCc4ccc(C#N)c5c4OCCC5)n3)cc2F)nc2ccc(C(=O)O)cc21` [Example 144, 2-(4-(6-((5-cyanochroman-8-yl)methoxy)pyridin-2-yl)-2-fluorobenzyl)-1-(2-methoxyethyl)-1H-benzo[d]imidazole-6-carboxylic acid], 20.7 nM; to `COCCn1c(Cc2cc(F)c(-c3cccc(OCc4ccc(C(F)(F)F)s4)n3)cc2F)nc2ccc(C(=O)O)cc21` [Example 864], 3.71 nM.
For the compound `COCCn1c(Cc2ccc(-c3cccc(OCc4cnc(Cl)nc4OC)n3)cc2F)nc2ccc(C(=O)O)cc21` [Example 227, 2-(4-(6-((2-chloro-4-methoxypyrimidin-5-yl)methoxy)pyridin-2-yl)-2-fluorobenzyl)-1-(2-methoxyethyl)-1H-benzo[d]imidazole-6-carboxylic acid], in data set [2], the half-maximal effective concentration (EC50) came out at 14.3 nM.
Same read-out and setting: the same measure for `CC(C)(Cn1c(Cc2ccc(-c3cccc(OCc4ccc(C#N)cc4F)n3)cc2F)nc2ccc(C(=O)O)cc21)C(F)F` [Example 12, 2-(4-(6-((4-cyano-2-fluorobenzyl)oxy)pyridin-2-yl)-2-fluorobenzyl)-1-(3,3-difluoro-2,2-dimethylpropyl)-1H-benzo[d]imidazole-6-carboxylic acid]: 1.77 nM; for `COCCn1c(Cc2ccc(-c3cccc(OCc4nnc(Cl)s4)n3)cc2F)nc2ccc(C(=O)O)cc21` [Example 590, 2-(4-(6-((5-chloro-1,3,4-thiadiazol-2-yl)methoxy)pyridin-2-yl)-2-fluorobenzyl)-1-(2-methoxyethyl)-1H-benzo[d]imidazole-6-carboxylic acid]: 3190 nM; for `N#Cc1ccc(COc2cccc(-c3cc(F)c(Cc4nc5ccc(C(=O)O)cc5n4CC4(CO)CC4)cc3F)n2)c(F)c1` [Example 637]: 1.18 nM.
Still for that read-out and setting: to `CC12COC(Cn3c(Cc4cc(F)c(-c5cccc(OCc6ccc(C#N)cc6F)n5)cc4F)nc4ccc(C(=O)O)cc43)(C1)C2` [Example 741] belongs 22.6 nM; to `COCCn1c(Cc2cc(F)c(-c3cccc(OCc4ccc(C#N)cc4F)n3)c(F)c2F)nc2ccc(C(=O)O)cc21` [Example 856, 2-(4-(6-((4-cyano-2-fluorobenzyl)oxy)pyridin-2-yl)-2,3,5-trifluorobenzyl)-1-(2-methoxyethyl)-1H-benzo[d]imidazole-6-carboxylic acid], 4.55 nM; to `COCCn1c(Cc2cc(F)c(-c3nc(OCc4ccc(C#N)cc4F)c(F)cc3F)cc2F)nc2ccc(C(=O)O)cc21` [Example 538, 2-(4-(6-((4-cyano-2-fluorobenzyl)oxy)-3,5-difluoropyridin-2-yl)-2,5-difluorobenzyl)-1-(2-methoxyethyl)-1H-benzo[d]imidazole-6-carboxylic], 4250 nM.
`O=C(O)c1ccc2nc(Cc3cc(F)c(-c4nc(OCc5ccc(C(F)F)cc5F)ccc4F)cc3F)n(C[C@@H]3CCO3)c2c1` [Example 787]: the concentration giving a half-maximal response (EC50) in data set [2] came to 0.08 nM.
On the same count and under the same terms, the same measure for `N#Cc1ccc(COc2cccc(-c3cc(F)c(Cc4nc5c(F)cc(C(=O)O)cc5n4Cc4ncco4)cc3F)n2)c(F)c1` [Example 584, 2-(4-(6-((4-cyano-2-fluorobenzyl)oxy)pyridin-2-yl)-2,5-difluorobenzyl)-4-fluoro-1-(oxazol-2-ylmethyl)-1H-benzo[d]imidazole-6-carboxylic acid]: 0.23 nM.
Still for that read-out and setting: to `COCCn1c(Cc2ccc(-c3cccc(OCc4cccc5c4OCCN5C)n3)cc2F)nc2ccc(C(=O)O)cc21` [Example 149, 2-(2-fluoro-4-(6-((4-methyl-3,4-dihydro-2H-benzo[b][1,4]oxazin-8-yl)methoxy)pyridin-2-yl)benzyl)-1-(2-methoxyethyl)-1H-benzo[d]imidazole-6-carboxylic acid] belongs 2040 nM.

The values are drawn from patent publication US11702404B2, “GLP-1R modulating compounds” (priority 2019, dated 2023).
